One data set concerns the target T1, human NOX2 (Homo sapiens, UniProt P04839).
T1 construct: made in house; host or cells: transgenic Drosophila (Da-GAL4 driven UAS-hNOX2, dDuox RNAi background); membranes from homogenized flies
T1 sequence (P04839 2-570 limits assumed): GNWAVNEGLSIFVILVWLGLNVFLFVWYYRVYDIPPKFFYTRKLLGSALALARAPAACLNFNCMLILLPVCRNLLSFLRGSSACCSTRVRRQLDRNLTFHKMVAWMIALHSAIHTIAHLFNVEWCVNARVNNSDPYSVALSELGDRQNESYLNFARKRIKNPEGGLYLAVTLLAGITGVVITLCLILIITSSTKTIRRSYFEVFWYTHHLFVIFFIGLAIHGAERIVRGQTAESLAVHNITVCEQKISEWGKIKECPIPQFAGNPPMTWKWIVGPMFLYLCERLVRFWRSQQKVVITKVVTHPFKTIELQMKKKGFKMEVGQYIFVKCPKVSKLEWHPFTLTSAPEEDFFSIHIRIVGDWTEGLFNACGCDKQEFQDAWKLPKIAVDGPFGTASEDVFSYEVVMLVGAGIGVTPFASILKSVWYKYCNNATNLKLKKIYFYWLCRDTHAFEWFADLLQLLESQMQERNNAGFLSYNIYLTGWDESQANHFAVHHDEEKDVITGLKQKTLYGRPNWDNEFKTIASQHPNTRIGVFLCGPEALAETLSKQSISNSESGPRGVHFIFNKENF
As to the kind of experiment: Lucigenin chemiluminescence assay, drosophila membranes expressing hNOX2. It counts as biochemical. To be noted: average of three repeats. Here is the method:
(§1) Human NOX isozymes were provided from transgenic flies expressing human NOX isozymes from the daughterless (Da)-GAL4 promoter. The genotype of each fly line is shown below. • human NOX2:UAS-hNOX2/UAS-dDuox-RNAi; Da-GAL4/+ • human NOX4:UAS-hNOX4/UAS-dDuox-RNAi; Da-GAL4/+
(§2) Transgenic flies were homogenized in PBS containing protease inhibitors (aprotinin, leupeptin) to obtain drosophila membranes of each NOX isozyme. The membranes were incubated with the compounds (100 μM, 10 μM, 1 μM, 0.1 μM, 0.01 μM, 0.001 μM, and 0 μM) for 10 minutes in a shaker. Then, to the membranes, a mixture of 500 μM NADPH (R-nicotinamide adenine dinucleotide 2′-phosphate reduced tetrasodium salt hydrate; Sigma-Aldrich) and 400 μM lucigenin (N,N′-dimethyl-9,9-biacridinium dinitrate; Sigma-Aldrich) in 1× HEPES (4-(2-hydroxyethyl)-1-piperazineethanesulfonic acid) buffer was added. Lucigenin chemiluminescence was detected at 1-minute intervals for 10 minutes using a multimode microplate reader (SpectraMax iD3, Molecular Devices). IC50 values were calculated with Graph-Pad Prism 5 (GraphPad Software).
(§3) The lucigenin chemiluminescence assay was performed with drosophila membranes expressing hNOX1, hNOX2, and hNOX4. The assay was repeated three times and the IC50 values were averaged.

A further data set deals with T2, human NOX4 (Homo sapiens, UniProt Q9NPH5).
T2 construct: made in house; host or cells: transgenic Drosophila (Da-GAL4 driven UAS-hNOX4, dDuox RNAi background); membranes from homogenized flies
T2 sequence (Q9NPH5 1-578): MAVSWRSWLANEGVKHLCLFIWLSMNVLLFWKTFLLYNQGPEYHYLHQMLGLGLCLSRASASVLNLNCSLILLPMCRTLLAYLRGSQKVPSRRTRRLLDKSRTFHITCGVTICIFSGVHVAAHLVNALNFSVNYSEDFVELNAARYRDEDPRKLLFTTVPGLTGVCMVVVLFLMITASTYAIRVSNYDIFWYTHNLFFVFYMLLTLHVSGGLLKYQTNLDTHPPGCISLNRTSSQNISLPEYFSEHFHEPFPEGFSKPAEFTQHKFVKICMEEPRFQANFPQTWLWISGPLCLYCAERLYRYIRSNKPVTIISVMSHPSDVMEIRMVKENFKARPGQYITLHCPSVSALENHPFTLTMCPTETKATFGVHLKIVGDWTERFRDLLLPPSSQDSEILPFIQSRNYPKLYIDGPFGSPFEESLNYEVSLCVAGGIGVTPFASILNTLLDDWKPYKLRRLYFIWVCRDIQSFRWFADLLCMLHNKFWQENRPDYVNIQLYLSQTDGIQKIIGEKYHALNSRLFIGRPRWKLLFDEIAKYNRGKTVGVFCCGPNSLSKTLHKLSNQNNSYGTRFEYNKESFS
As to the kind of experiment: Lucigenin chemiluminescence assay, drosophila membranes expressing hNOX4. To be noted: average of three repeats. It is filed as biochemical. Here is the method: as §1, §2, §3

Another data set can be described thus: PAMPA-BBB assay. It is filed as in vitro ADME. Here is the method: The parallel artificial membrane permeability assay (PAMPA) was performed to determine the brain barrier blood (BBB) permeability. […] For the Blank measurement, the donor buffer was dispensed into a high sensitivity UV plate at 150 μl per well and the UV values were measured (Blank sample). For the initial value measurement, the mixture in the deep well plate was dispensed 150 μl per well into the UV plate and the UV values were measured (initial sample). Next, 200 μl of the test compound mixture was dispensed onto the donor plate of the PAMPA sandwich, and the acceptor plate of the PAMPA sandwich was inverted and the membrane was coated with 5 μl of BBB-lipid solution. Then, 200 μl of acceptor sink buffer was added to each well of the acceptor plate, and the acceptor plate and donor plate were combined and incubated at 25° C. for 4 hours. […] Finally, the permeability (Pe(10^−6 cm/sec)) was analyzed using the PAMPA explore program. The experiment was performed in three replicates. The permeability of the material was analyzed by UV measurement and LC-MS/MS, the specific conditions of which are described below.
(In general: The PAMPA barrier holds no transporters, so it reflects passive diffusion.)

Data set [1] is described as follows: Metabolic stability in human liver microsomes. It counts as in vitro ADME. To be noted: human liver microsomes 0.5 mg/ml, 1 μM, 30 minutes, 37° C., NADPH. Here is the method:
The stability of a drug may be predicted by using liver microsomes to determine the extent to which the drug is metabolized in the liver. […] Thus, a metabolic stability verification experiment was performed on the oxadiazole derivatives according to The present disclosure.
Specifically, sample treatment human liver microsomes (0.5 mg/ml), 0.1 M phosphate buffer (pH 7.4), and test compound at a concentration of 1 μM were added, and the mixture was pre-incubated at 37° C. for 5 minutes, followed by addition of NADPH Regeneration system solution and incubation at 37° C. for 30 minutes. An acetonitrile solution containing an internal standard (chlorpropamide) was then added to terminate the reaction, followed by centrifugation for 5 minutes (14,000 rpm, 4° C.). Then, the supernatant was injected into the LC-MS/MS system to analyze the substrate drug to evaluate the metabolic stability of the two compounds.
The HPLC column was an Acquity UPLC BEH Amide column (2.1×100 mm, 1.7 μm particle size; Waters, Ireland). The mobile phases were distilled water containing 0.1% formic acid (A) and acetonitrile containing 0.1% formic acid (B). Data analysis was performed using Analyst software (version 1.6.3).
In general terms: Liver microsomes are a subcellular fraction often used to study metabolism.

In another data set the test system is U87. The experiment in a line: Mouse model xenografted with brain tumor glioblastoma U87. To be noted: Example 2 study: Example 2 50 mg/kg 5 times per week, TMZ 5 mg/kg 2 times per week, from 20 days after xenografting; vehicle 42 days. It is filed as in vivo, mice. Here is the method: To confirm the therapeutic effect on brain tumor glioblastoma, U87 (5×10^4), a human brain tumor cell line, was xenografted into the brains of mice to establish a brain tumor model, followed by oral administration of the drugs.
Different experimental groups were evaluated for each compound.
First, with respect to the compound of Example 1, the experimental groups were divided into Vehicle (n=3) and the compound of Example 1, 50 mg/kg (n=3) and the administered with the drug orally 5 times a week 20 days after U87 xenografting.
With respect to the compound of Example 2, the experimental groups were divided into Vehicle (n=9), TMZ 5 mg/kg (Temozolomide, n=10, 2 times per week), the compound of Example 2, 50 mg/kg (n=8, 5 times per week), and combination (TMZ+the compound of Example 2, n=7), and began receiving the drug 20 days after U87 xenografting.

The mark [2] stands for this setting: 50 μM, incubation 4 hr, pH 7.4, 25° C., U.V, read-out: Permeability Pe.

Where two headings read alike, the source gives them in different places.

What is called IC50 is the midpoint of a concentration-inhibition curve. A high value points to weaker potency. For the compound `O=C(Nc1nnc(-c2ccccc2)o1)c1cc(F)cc(C(F)(F)F)c1` [Example 3, 3-fluoro-N-(5-phenyl-1,3,4-oxadiazol-2-yl)-5-(trifluoromethyl)benzamide], the results for the IC50 against human NOX2 and against human NOX4 were 240 nM and 380 nM, respectively.

For the compound `O=C(Nc1nnc(-c2cccc(Br)c2)o1)c1ccc(F)c(C(F)(F)F)c1` [Example 4, N-(5-(3-bromophenyl)-1,3,4-oxadiazol-2-yl)-4-fluoro-3-(trifluoromethyl)benzamide], the IC50 was 210 nM against human NOX2 and 250 nM against human NOX4.

With `O=C(Nc1nnc(-c2cccc(C(F)(F)F)c2)o1)c1ccc(F)c(C(F)(F)F)c1` [Example 5, 4-fluoro-3-(trifluoromethyl)-N-(5-(3-(trifluoromethyl)phenyl)-1,3,4-oxadiazol-2-yl)benzamide], the values for the IC50 against human NOX2 and against human NOX4 were 180 nM and 140 nM, respectively.

For `O=C(Nc1nnc(-c2cccc(Cl)c2)o1)c1ccc(F)c(C(F)(F)F)c1` [Example 6, N-(5-(3-chlorophenyl)-1,3,4-oxadiazol-2-yl)-4-fluoro-3-(trifluoromethyl)benzamide], the figures for the IC50 against human NOX2 and at human NOX4 were 230 nM and 270 nM, respectively.

In the case of `O=C(Nc1nnc(-c2ccccc2)o1)c1ccc(I)c(C(F)(F)F)c1` [Example 7, 4-iodo-N-(5-phenyl-1,3,4-oxadiazol-2-yl)-3-(trifluoromethyl)benzamide], the IC50 was 190 nM against human NOX2 and 120 nM against human NOX4.

As for `O=C(Nc1nnc(-c2cccc(-c3ccsc3)c2)o1)c1ccc(F)c(C(F)(F)F)c1` [Example 8], the IC50 on human NOX2 was 160 nM; on human NOX4, 190 nM.

Turning to `O=C(Nc1nnc(-c2cccc(-c3ccsc3)c2)o1)c1cc(F)cc(C(F)(F)F)c1` [Example 9], the figures for the IC50 on human NOX2 and against human NOX4 were 150 nM and 130 nM, respectively.

For the compound `O=C(Nc1nnc(-c2cccc(-c3ccoc3)c2)o1)c1ccc(F)c(C(F)(F)F)c1` [Example 10], the IC50 at human NOX2 amounted to 100 nM; at human NOX4, 160 nM. Moreover, the Papp at 4 h, 50 μM in “PAMPA-BBB assay” (setting [2]) was over 0.4 ×10⁻⁶ cm/s. In addition, in data set [1], the “Human (% ) remaining, microsomal stability” value (“Human (% ) remaining” for short) was determined as 94.9%.

On to `O=C(Nc1nnc(-c2cccc(-c3ccoc3)c2)o1)c1cc(F)cc(C(F)(F)F)c1` [Example 11], for which the IC50 against human NOX2 was found to be 170 nM; against human NOX4, 260 nM. Moreover, the Papp at 4 h, 50 μM in the data set “PAMPA-BBB assay” (setting [2]) is over 0.4 ×10⁻⁶ cm/s.

With `O=C(Nc1nnc(-c2cccc(C(F)(F)F)c2)o1)c1cc(F)cc(C(F)(F)F)c1` [Example 12, 3-fluoro-5-(trifluoromethyl)-N-(5-(3-(trifluoromethyl)phenyl)-1,3,4-oxadiazol-2-yl)benzamide], the IC50 against human NOX2 turned out to be 140 nM; against human NOX4, 120 nM. For the same compound, the “Human (% ) remaining” value in data set [1] worked out at 90.0%.

`O=C(Nc1nnc(-c2cccc(Br)c2)o1)c1cc(F)cc(C(F)(F)F)c1` [Example 13, N-(5-(3-bromophenyl)-1,3,4-oxadiazol-2-yl)-3-fluoro-5-(trifluoromethyl)benzamide]: the figures for the IC50 against human NOX2 and against human NOX4 were 150 nM and 170 nM, respectively. Further, the Papp at 4 h, 50 μM in “PAMPA-BBB assay” (setting [2]) is over 0.4 ×10⁻⁶ cm/s. Further, in data set [1], the “Human (% ) remaining” value was 79.0%.

`CC(=O)[C@H]1CC[C@H]2[C@@H]3CCC4=CC(=O)CC[C@]4(C)[C@H]3CC[C@]12C` [Progesterone, reference compound] gave a Papp at 4 h, 50 μM in the data set “PAMPA-BBB assay” (pH 7.4) of over 0.4 ×10⁻⁶ cm/s.

`CNC(=C[N+](=O)[O-])NCCSCc1ccc(CN(C)C)o1` [Ranitidine, reference compound] registered a Papp at 4 h, 50 μM in “PAMPA-BBB assay” (pH 7.4) of under 0.4 ×10⁻⁶ cm/s.

`Cn1nnc2c(C(N)=O)ncn2c1=O` [TMZ, Temozolomide, reference compound]: in the data set with U87, the median survival time was determined as 54.5 days.

Values taken from patent US20250051293A1, “NOVEL OXADIAZOLE DERIVATIVE AND USE THEREOF” (CELROS BIOTECH, priority 2021, published 2025).
